This passage reports IC50 results from ChEMBL document CHEMBL1201862, “PubChem BioAssay data set” (2004).

Molecules are shown by their SMILES. Active and inactive are the calls of the source. Where only a bound is given, the exact number is not on record here.

Experiment [1] concerns the target T1, 1-phosphatidylinositol 4,5-bisphosphate phosphodiesterase gamma-1 (Homo sapiens, UniProt P19174).
T1 sequence (P19174 whole entry): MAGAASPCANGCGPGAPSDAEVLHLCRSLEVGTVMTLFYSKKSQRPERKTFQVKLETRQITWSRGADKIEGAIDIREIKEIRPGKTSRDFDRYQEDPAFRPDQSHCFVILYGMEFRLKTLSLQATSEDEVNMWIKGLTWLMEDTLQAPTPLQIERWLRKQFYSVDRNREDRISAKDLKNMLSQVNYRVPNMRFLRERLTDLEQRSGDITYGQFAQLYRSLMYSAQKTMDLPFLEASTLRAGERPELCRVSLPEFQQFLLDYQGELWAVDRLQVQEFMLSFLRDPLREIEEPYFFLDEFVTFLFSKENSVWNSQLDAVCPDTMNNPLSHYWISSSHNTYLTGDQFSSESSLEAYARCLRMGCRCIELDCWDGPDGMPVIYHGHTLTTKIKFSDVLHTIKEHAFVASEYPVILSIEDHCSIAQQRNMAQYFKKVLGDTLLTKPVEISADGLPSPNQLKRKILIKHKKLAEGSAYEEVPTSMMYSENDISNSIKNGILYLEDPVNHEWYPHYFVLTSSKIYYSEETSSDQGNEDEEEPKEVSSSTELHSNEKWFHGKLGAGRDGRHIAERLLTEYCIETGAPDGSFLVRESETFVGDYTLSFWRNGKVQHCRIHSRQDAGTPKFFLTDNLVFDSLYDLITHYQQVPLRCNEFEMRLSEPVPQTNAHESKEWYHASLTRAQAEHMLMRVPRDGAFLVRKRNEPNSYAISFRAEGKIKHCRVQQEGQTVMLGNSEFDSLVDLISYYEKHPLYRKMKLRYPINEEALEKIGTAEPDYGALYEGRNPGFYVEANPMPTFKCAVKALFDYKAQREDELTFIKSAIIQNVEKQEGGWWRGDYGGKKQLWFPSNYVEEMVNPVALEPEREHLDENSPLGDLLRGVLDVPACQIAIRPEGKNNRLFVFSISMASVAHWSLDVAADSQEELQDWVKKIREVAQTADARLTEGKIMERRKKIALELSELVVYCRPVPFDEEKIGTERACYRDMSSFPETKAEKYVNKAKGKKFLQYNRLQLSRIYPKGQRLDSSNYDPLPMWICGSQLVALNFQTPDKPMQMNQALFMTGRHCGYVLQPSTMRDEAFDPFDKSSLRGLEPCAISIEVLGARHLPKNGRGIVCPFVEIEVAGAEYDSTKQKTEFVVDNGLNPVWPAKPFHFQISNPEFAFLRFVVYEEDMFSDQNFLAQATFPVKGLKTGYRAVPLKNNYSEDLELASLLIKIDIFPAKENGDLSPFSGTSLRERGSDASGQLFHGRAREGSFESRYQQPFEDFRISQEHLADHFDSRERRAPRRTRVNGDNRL
Nature of the experiment: Counterscreen for inhibitors of phospholipase C isozymes (PLC-B3): Fluorescence-based biochemical high throughput dose response assay to identify inhibitors of phospholipase C isozymes (PLC-gamma1). (Counterscreens check selectivity or assay interference.)

The next experiment addresses Albumin (Bos taurus, UniProt P02769). Nature of the experiment: Counterscreen for inhibitors of T-cell receptor (TCR)-CD3 interaction: Fluorescence-based biochemical high throughput dose response assay to identify inhibitors of T-cell receptor (TCR)-CD3 interaction using a TAMRA-labeled BSA probe. The experiment is classed as functional.

Chain of Albumin (P02769 whole entry): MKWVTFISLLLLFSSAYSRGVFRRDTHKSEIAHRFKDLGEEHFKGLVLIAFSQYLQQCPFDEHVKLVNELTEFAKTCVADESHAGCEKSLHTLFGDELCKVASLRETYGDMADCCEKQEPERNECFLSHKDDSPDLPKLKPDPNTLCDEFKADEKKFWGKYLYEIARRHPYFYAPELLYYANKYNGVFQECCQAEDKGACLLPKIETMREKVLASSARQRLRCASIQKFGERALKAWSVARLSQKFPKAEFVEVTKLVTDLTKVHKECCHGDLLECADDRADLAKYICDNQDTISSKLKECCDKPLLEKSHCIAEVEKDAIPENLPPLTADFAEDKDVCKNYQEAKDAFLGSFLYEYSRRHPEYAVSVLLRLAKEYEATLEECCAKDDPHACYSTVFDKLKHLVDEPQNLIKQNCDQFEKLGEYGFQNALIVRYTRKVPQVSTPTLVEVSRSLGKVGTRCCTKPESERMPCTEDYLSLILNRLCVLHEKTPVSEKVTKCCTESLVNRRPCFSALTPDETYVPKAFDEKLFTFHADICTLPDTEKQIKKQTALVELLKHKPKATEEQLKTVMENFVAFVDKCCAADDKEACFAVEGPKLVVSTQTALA

For the molecule `O=c1c(O)cccc2cc(O)c(O)c(O)c12` [PURPUROGALLIN], the IC50 (commonly the concentration at which inhibition is half-maximal) is 20.9 µM (inactive) in experiment [1] and > 94.1 µM (inactive) at Albumin.
